Assays:
CNS nicotinic receptors = assay: Determination of binding to relevant receptor sites; conditions: inhibition constant calculated from IC50 by the method of Cheng et al.
Experimental: Determination of Binding to Relevant Receptor Sites
Binding of the compounds to relevant receptor sites was determined in accordance with the techniques described in U.S. Pat. No. 5,597,919 to Dull et al. Inhibition constants (Ki values), reported in nM, were calculated from the IC50 values using the method of Cheng et al., Biochem, Pharmacol. 22:3099 (1973).

[1] = biological target: muscle-type nicotinic acetylcholine receptors (Homo sapiens, UniProt P02708+P07510+P11230+Q07001); assay: Determination of interaction with muscle receptors; type: cell-based; conditions: at a concentration of 100 uM; percentage of maximal activation induced by (S)-(-)-nicotine
Sequence of muscle-type nicotinic acetylcholine receptors (P02708 whole entry): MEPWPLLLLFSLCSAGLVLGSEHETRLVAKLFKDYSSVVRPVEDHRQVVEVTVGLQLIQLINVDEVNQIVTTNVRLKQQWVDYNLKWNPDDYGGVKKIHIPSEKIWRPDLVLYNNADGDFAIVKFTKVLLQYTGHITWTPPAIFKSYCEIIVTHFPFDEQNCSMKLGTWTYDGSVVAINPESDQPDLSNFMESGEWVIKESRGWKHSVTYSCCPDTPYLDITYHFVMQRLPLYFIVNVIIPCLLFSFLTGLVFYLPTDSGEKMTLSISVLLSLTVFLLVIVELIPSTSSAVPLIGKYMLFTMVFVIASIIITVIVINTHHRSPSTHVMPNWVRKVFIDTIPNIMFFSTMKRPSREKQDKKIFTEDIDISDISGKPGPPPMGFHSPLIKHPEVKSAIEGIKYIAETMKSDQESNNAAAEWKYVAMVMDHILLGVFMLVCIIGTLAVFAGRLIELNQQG
Sequence of muscle-type nicotinic acetylcholine receptors (P11230 24-501): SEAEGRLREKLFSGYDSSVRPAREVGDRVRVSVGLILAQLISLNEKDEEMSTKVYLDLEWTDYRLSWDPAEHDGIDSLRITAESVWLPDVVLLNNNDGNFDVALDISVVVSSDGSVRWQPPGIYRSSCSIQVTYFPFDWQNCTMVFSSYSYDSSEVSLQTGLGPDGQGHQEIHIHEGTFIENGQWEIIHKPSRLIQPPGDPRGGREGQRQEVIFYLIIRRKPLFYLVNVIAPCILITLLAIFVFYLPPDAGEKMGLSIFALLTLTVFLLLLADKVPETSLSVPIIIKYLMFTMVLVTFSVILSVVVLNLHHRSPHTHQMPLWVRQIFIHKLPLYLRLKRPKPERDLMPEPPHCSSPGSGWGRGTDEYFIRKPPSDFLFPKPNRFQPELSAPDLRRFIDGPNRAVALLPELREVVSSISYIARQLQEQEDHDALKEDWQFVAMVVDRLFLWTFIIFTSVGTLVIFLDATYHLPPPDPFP
Sequence of muscle-type nicotinic acetylcholine receptors (P07510 23-517): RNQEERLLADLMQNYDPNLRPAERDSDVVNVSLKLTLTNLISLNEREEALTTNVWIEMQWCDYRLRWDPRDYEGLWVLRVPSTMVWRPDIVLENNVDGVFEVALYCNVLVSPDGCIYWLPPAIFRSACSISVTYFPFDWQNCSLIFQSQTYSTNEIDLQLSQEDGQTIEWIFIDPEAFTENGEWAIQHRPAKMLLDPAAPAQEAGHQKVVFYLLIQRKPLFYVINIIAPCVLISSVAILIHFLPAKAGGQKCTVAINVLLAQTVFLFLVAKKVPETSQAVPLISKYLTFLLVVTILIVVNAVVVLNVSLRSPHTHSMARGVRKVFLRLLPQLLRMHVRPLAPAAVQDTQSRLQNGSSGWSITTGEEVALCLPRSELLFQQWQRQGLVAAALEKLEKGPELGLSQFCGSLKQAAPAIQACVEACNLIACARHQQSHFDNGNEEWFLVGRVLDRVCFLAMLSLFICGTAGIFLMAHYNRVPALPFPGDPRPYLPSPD
Sequence of muscle-type nicotinic acetylcholine receptors (Q07001 22-517): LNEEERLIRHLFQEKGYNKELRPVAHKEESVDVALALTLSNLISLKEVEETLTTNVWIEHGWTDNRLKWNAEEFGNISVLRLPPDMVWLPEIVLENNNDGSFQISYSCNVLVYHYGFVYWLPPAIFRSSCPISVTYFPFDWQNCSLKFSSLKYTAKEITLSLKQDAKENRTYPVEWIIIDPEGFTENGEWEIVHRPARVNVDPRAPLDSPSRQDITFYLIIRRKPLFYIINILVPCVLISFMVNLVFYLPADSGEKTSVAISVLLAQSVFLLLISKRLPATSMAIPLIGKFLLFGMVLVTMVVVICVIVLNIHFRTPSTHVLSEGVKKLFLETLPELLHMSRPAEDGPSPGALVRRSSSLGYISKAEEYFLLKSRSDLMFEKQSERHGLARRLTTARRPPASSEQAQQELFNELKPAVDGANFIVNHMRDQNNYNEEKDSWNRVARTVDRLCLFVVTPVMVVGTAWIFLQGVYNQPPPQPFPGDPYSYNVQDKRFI
Experimental: Determination of Interaction with Muscle Receptors
The determination of the interaction of the compounds with muscle receptors was carried out in accordance with the techniques described in U.S. Pat. No. 5,597,919 to Dull et al. The maximal activation for individual compounds (Emax) was determined as a percentage of the maximal activation induced by (S)-(−)-nicotine. Reported Emax values represent the amount released relative to (S)-(−)-nicotine on a percentage basis.

[2] = tested on: ganglionic-type nicotinic acetylcholine receptors; assay: Determination of interaction with ganglion receptors; type: cell-based; conditions: at a concentration of 100 uM; percentage of maximal activation induced by (S)-(-)-nicotine
Experimental: Determination of Interaction with Ganglion Receptors
The determination of the interaction of the compounds with ganglionic receptors was carried out in accordance with the techniques described in U.S. Pat. No. 5,597,919 to Dull et al. The maximal activation for individual compounds (Emax) was determined as a percentage of the maximal activation induced by (S)-(−)-nicotine. Reported Emax values represent the amount released relative to (S)-(−)-nicotine on a percentage basis.

Row | Molecule | Ki (CNS nicotinic receptors) | Emax at muscle-type receptors [1] | Emax at ganglionic-type receptors [2]
1 | Brc1cncc(N2C[C@@H]3C[C@H]2CN3)c1 [Sample No. 1, (1S,4S)-(5-bromo-3-pyridyl)-2,5-diazabicyclo[2.2.1]heptane] | 56 nM | 0% | 5%
2 | (1S,4S)-(5-(4-methoxyphenoxy)-3-pyridyl)-2,5-diazabicyclo[2.2.1]heptane hemigalactarate [Sample No. 2] | – | 12% | 11%
3 | (1S,4S)-(5-pyrimidinyl)-2,5-diazabicyclo[2.2.1]heptane hemigalactarate [Sample No. 3] | – | 100% | 11%
4 | (1S,4S)-(6-chloro-3-pyridazinyl)-2,5-diazabicyclo[2.2.1]heptane hemigalactarate [Sample No. 4] | – | 0% | 28%

Reference: patent US6440970B1, “Pharmaceutical compositions and methods for use” (Targacept, Inc., priority 2000, dated 2002)
